Earlier results on three compounds are cited in PMC10468453, “First-in-human study of a novel cell death tracer [^99mTc]Tc-Duramycin: safety, biodistribution and radiation dosimetry in healthy volunteers” (EJNMMI Radiopharmacy and Chemistry, 2023).

For this data set the following is noted: humans; ref Challapalli et al. [2013]; Doss et al. [2013]; Hoglund et al. [2011]; Kemerink et al. [2003]; Quinn et al. [2016]. The source says:
We determined the mean effective dose of [^99mTc]Tc-Duramycin as 7.6 µSv/MBq, corresponding to a total effective dose of 3.60 mSv for a patient dose of 473 MBq.

As for `O=C1C(=O)N(Cc2cn(CC[18F])nn2)c2ccc(S(=O)(=O)N3CCCC3COc3ccc(F)cc3F)cc21` (stereo not drawn) [[^18F]ICMT-11], the Effective dose was 12.5 mSv.

As to `O=C[C@H]([18F])[C@@H](O)[C@H](O)[C@H](O)CO` [[^18F]FDG, 2-[^18F]fluoro-2-deoxy-D-glucose], the Effective dose was 9.0 mSv.

For “[^99mTc]HYNIC-annexin V: radiolabeled annexin V, a phosphatidylserine-binding protein”, the Effective dose is reported as 5.5 mSv.
